Numbers after ± are expanded uncertainties.
Settings: Liquid; for mass density: Vibrating tube method; for speed of sound: Pulse-echo method

CCCCCCCCCCCCCCCCCc1ccccc1 [heptadecane, 1-phenyl-]
Settings	mass density, 343.15 K [kg/m3]	mass density, 353.15 K [kg/m3]	mass density, 363.15 K [kg/m3]	mass density, 373.15 K [kg/m3]	speed of sound, 343.15 K [m/s]	speed of sound, 353.15 K [m/s]	speed of sound, 363.15 K [m/s]	speed of sound, 373.15 K [m/s]
100 kPa	–	814.43 ± 0.84	807.8 ± 0.84	801.11 ± 0.83	–	1255.2 ± 3.3	1223.6 ± 3.2	1193 ± 3.2
5000 kPa	–	817.93 ± 0.85	811.3 ± 0.84	805.07 ± 0.84	–	–	–	–
10000 kPa	–	821.35 ± 0.86	815.14 ± 0.85	808.86 ± 0.85	–	1308.6 ± 3.3	1278.7 ± 3.3	1249.5 ± 3.3
15000 kPa	830.75 ± 0.87	824.69 ± 0.87	818.57 ± 0.86	812.48 ± 0.86	–	–	–	–
20000 kPa	833.93 ± 0.88	827.9 ± 0.88	821.81 ± 0.87	815.93 ± 0.87	1387.3 ± 3.5	1359.3 ± 3.4	1330.3 ± 3.4	1302.6 ± 3.3
25000 kPa	836.75 ± 0.89	830.86 ± 0.89	824.97 ± 0.88	819.17 ± 0.88	–	–	–	–
30000 kPa	839.62 ± 0.9	833.85 ± 0.9	828 ± 0.9	822.4 ± 0.89	1432.3 ± 3.6	1405.3 ± 3.5	1378 ± 3.5	1351.4 ± 3.4
35000 kPa	842.4 ± 0.91	836.9 ± 0.91	830.94 ± 0.91	825.42 ± 0.91	–	–	–	–
40000 kPa	845.11 ± 0.92	839.55 ± 0.92	833.81 ± 0.92	828.43 ± 0.92	1475.5 ± 3.6	1448.5 ± 3.6	1422.2 ± 3.5	1396.8 ± 3.5
45000 kPa	847.75 ± 0.94	842.1 ± 0.93	836.5 ± 0.93	831.28 ± 0.93	–	–	–	–
50000 kPa	850.31 ± 0.95	844.78 ± 0.95	839.26 ± 0.95	834.03 ± 0.95	1515.3 ± 3.7	1489.5 ± 3.7	1464 ± 3.6	1439.2 ± 3.6
55000 kPa	852.73 ± 0.96	847.34 ± 0.96	841.95 ± 0.96	836.72 ± 0.96	–	–	–	–
60000 kPa	855.09 ± 0.97	849.77 ± 0.97	844.41 ± 0.97	839.37 ± 0.98	1553.3 ± 3.8	1528.3 ± 3.7	1503.3 ± 3.7	1479.7 ± 3.6
70000 kPa	–	–	–	–	1589.5 ± 3.8	1564.8 ± 3.8	1541.1 ± 3.7	1517.7 ± 3.7
80000 kPa	–	–	–	–	1624.1 ± 3.9	1600.1 ± 3.8	1576.4 ± 3.8	1553.8 ± 3.8
90000 kPa	–	–	–	–	1657.2 ± 3.9	1633.4 ± 3.9	1610.7 ± 3.9	1588.6 ± 3.8
100000 kPa	–	–	–	–	1688 ± 4	1665.5 ± 4	1643.4 ± 3.9	1621.8 ± 3.9
110000 kPa	–	–	–	–	1719.2 ± 4	1696.9 ± 4	1674.6 ± 4	1653.6 ± 3.9
120000 kPa	–	–	–	–	1748.7 ± 4.1	1726.9 ± 4.1	1705 ± 4	1684.3 ± 4
130000 kPa	–	–	–	–	1777.4 ± 4.2	1755.8 ± 4.1	1734.4 ± 4.1	1713.8 ± 4
140000 kPa	–	–	–	–	1805 ± 4.2	1783.8 ± 4.2	1763.3 ± 4.1	1742.7 ± 4.1
150000 kPa	–	–	–	–	1832 ± 4.2	1811.1 ± 4.2	1790 ± 4.2	1770.5 ± 4.1

Reference: the NIST ThermoML archive (doi:10.1021/je049973v)
